Experimental findings from patent US20110201564A1, “SUBSTITUTED 7-SULFANYLMETHYL, 7-SULFINYLMETHYL AND 7-SULFONYLMETHYL INDOLES AND USE THEREOF” (BAYER SCHERING PHARMA AKTIENGESELLSCHAFT, priority 2008, published 2011) are described below.

Series [1] concerns the target T1, human mineralocorticoid receptor (MR) (Homo sapiens, UniProt P08235).
T1 construct: expressed in transfected cells; host or cells: CHO K1
T1 sequence (P08235 734-984 limits assumed): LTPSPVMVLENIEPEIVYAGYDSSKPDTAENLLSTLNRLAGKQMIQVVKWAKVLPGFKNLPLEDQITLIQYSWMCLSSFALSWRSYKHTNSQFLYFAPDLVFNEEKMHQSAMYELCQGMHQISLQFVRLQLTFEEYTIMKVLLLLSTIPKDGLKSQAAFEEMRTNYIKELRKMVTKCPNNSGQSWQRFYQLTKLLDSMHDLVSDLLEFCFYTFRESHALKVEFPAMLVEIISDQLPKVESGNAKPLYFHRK
The series can be described thus: Cellular in vitro assay, GAL4-MR chimera luciferase reporter in CHO K1 cells (inhibitory MR activity). The class given is cell-based. Particulars: antagonism vs aldosterone; CHO K1 GAL4-MR LBD luciferase reporter. Put shortly:
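CHO K1 cells stably expressing GAL4 DNA-binding domain fused to human MR, PR or AR ligand-binding domains plus GAL4-driven firefly luciferase; compounds added 10–30 min before agonist (aldosterone, progesterone or dihydrotestosterone), luciferase read after 5–6 h; IC50 from sigmoidal concentration–response curves.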
Background: In a reporter assay the amount or activity of a reporter protein is the signal.

A further series has as its target T2, CYP3A4 (Homo sapiens, UniProt P08684).
T2 construct: using human liver microsomes (pool from various individuals); from tissue; host or cells: human liver microsomes (pool from various individuals)
In words: Assay to assess irreversible CYP3A4 inhibition (mechanism-based inhibition) in human liver microsomes. The class given is in vitro ADME. Particulars: CYP3A4 activity as 6β-hydroxytestosterone formation, 2-20 μM. The text has this: 8. Assay to Assess Irreversible CYP3A4 Inhibition
Cytochrom P450 enzyme inhibition, especially irreversible enzyme inhibition, also referred to as mechanism-based inhibition (MBI), is an unwanted metabolic property of a substance which may, on concurrent administration of other medicaments, lead to considerable drug interactions. Criteria for the presence of an irreversible inhibition are a time-, concentration- and cofactor- (nicotinamide adenine dinucleotide phosphate, NADPH) dependent inhibition. To this end, the compounds of the invention are incubated in vitro with human liver microsomes, the influence on the CYP3A4 activity and the metabolic degradation of the novel active ingredient is determined, and the prototypical parameters kinact, Ki and the partition ratio r are ascertained therefrom.
The compounds of the invention are incubated with concentrations of 2-20 μM. To this end, stock solutions of the active ingredients with a concentration of 0.2-2 mM are prepared in acetonitrile and then pipetted with a 1:100 dilution into the incubation mixture. The liver microsomes are incubated in 50 mM potassium phosphate buffer (pH 7.4) with and without NADPH-generating system consisting of 1 mM NADP^+, 5 mM glucose 6-phosphate and 1 unit of glucose 6-phosphate dehydrogenase, at 37° C. After defined preincubation times of 0-50 min, aliquots are removed from these mixtures, diluted 1:25 in a new incubation, and incubated in the presence of testosterone and new NADPH-generating system again for 20 min. These incubation mixtures are stopped with acetonitrile (final concentration about 30% v/v), and the protein is removed by centrifugation at about 15 000×g. The samples stopped in this way are either analyzed directly or stored at −20° C. until analyzed.
The analysis takes place by high performance liquid chromatography with mass spectrometry detection (LC-MS). The formation of 6β-hydroxytestosterone as measure of CYP3A4 activity, and the test substance still remaining is quantified. The parameters kinact, Ki and the partition ratio r are determined therefrom so as to assess the novel active ingredients in relation to MBI.
(Liver microsomes are a subcellular fraction often used to study metabolism.)

Structures are written as SMILES.

T2 sequence (P08684 whole entry): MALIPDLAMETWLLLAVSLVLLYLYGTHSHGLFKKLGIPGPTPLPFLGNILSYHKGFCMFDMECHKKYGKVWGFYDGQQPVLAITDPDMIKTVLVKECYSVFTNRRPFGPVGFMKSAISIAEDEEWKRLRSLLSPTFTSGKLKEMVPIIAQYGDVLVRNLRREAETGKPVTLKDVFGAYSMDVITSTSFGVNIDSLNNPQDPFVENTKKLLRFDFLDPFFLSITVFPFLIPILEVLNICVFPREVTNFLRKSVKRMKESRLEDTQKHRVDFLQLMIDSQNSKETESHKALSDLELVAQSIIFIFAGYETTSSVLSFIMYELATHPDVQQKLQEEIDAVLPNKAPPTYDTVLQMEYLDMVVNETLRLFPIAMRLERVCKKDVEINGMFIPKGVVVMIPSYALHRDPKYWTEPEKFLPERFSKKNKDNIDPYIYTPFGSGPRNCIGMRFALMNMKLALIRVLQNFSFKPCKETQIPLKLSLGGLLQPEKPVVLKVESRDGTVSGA

Regarding `CCC(CCC#N)(c1ccc(Cl)cc1)c1c[nH]c2c(CS(C)(=O)=O)cccc12` (centres unmarked) [Example 172, 4-(4-Chlorophenyl)-4-{7-[(methylsulfonyl)methyl]-1H-indol-3-yl}hexanonitrile], the IC50 (commonly the concentration needed to halve the response being measured) in series [1] amounted to 20 nM. Further, on CYP3A4, the Partition ratio r is reported as 120.
In the same order, the values of `CS(=O)(=O)Cc1cccc2c(C3(C4CC4)CCc4cc(F)ccc43)c[nH]c12` (centres unmarked) [Example 107, 3-(1-Cyclopropyl-5-fluoro-2,3-dihydro-1H-inden-1-yl)-7-[(methylsulfonyl)methyl]-1H-indole] are 20 nM and over 400.
`CS(=O)(=O)Cc1cc(F)cc2c(C(c3ccc(Cl)cc3F)C3CC3C#N)c[nH]c12` (single isomer, unassigned) [Example 273-1-2, 2-[(4-Chloro-2-fluorophenyl){5-fluoro-7-[(methylsulfonyl)methyl]-1H-indol-3-yl}methyl]cyclopropanecarbonitrile] returned an IC50 in series [1] of 6 nM. Also, the Partition ratio r on CYP3A4 was over 200.
In the same order, the values of `CS(=O)(=O)Cc1cccc2c(C(CCC#N)c3ccc4sccc4c3)c[nH]c12` (centres unmarked) [Example 73, 4-(1-Benzothiophen-5-yl)-4-{7-[(methylsulfonyl)methyl]-1H-indol-3-yl}butanonitrile] are 90 nM and over 500.
In series [1], `CS(=O)(=O)Cc1cccc2c(C(c3ccc(Cl)cc3)C3CC3(F)F)c[nH]c12` (single isomer, unassigned) [Example 261-1, 3-[(4-Chlorophenyl)(2,2-difluorocyclopropyl)methyl]-7-[(methylsulfonyl)methyl]-1H-indole] gave an IC50 of 33 nM. Besides, on CYP3A4, the Partition ratio r is over 200.
Compound `CS(=O)(=O)Cc1cccc2c(C(c3ccc(F)cc3)c3ccc(C(F)(F)F)cc3)c[nH]c12` (centres unmarked) [Example 113, 3-{(4-Fluorophenyl) [4-(trifluoromethyl)phenyl]methyl}-7-[(methylsulfonyl)methyl]-1H-indole] showed an IC50 in series [1] of 130 nM. For the same compound, the Partition ratio r on CYP3A4 was over 500.
In the case of `CCC(CCO)(c1ccc(Cl)cc1)c1c[nH]c2c(CS(C)(=O)=O)cccc12` (centres unmarked) [Example 147, 3-(4-Chlorophenyl)-3-{7-[(methylsulfonyl)methyl]-1H-indol-3-yl}pentan-1-ol], in series [1], the 50% inhibitory concentration (IC50) is 30 nM. Moreover, the Partition ratio r on CYP3A4 amounted to 90.
In the same order, the values of `CS(=O)(=O)Cc1cccc2c(C(CCC#N)c3ccc4c(c3)OC(F)(F)O4)c[nH]c12` (centres unmarked) [Example 169, 4-(2,2-Difluoro-1,3-benzodioxol-5-yl)-4-{7-[(methylsulfonyl)methyl]-1H-indol-3-yl}butanonitrile] are 110 nM and over 500.
On the same counts, the results for `CS(=O)(=O)Cc1cccc2c(C(CCC#N)c3ccc(Cl)cc3F)c[nH]c12` (single isomer, unassigned) [Example 59-1, 4-(4-Chloro-2-fluorophenyl)-4-{7-[(methylsulfonyl)methyl]-1H-indol-3-yl}butanonitrile] are 80 nM and 220.
In the same order, the values of `CS(=O)(=O)Cc1cc(F)cc2c(C(c3ccc(C(F)(F)F)cc3F)C3CC3C#N)c[nH]c12` (single isomer, unassigned) [Example 271-1-1, 2-({5-Fluoro-7-[(methylsulfonyl)methyl]-1H-indol-3-yl}[2-fluoro-4-(trifluoro-methyl)phenyl]methyl)cyclopropanecarbonitrile] are 6 nM and over 200.
